Earlier results on ten compounds are cited in patent publication US9126163B2, “Nanoemulsions and processes for their preparation, and their use as formulations of plant protection agents and/or pesticides and/or cosmetic preparations” (Evonik Degussa GmbH, priority 2008, dated 2015).

≈ marks a conversion by molar mass, not a printed value.

abamectin: the solubility in water is 0.007 to 0.01 mg/L.

With `COC(=O)Nc1nc2ccccc2[nH]1` [carbendazim], the solubility in water was 29 mg/L (≈ 152 µM).

As for `CO/C=C(/C(=O)OC)c1ccccc1Oc1cc(Oc2ccccc2C#N)ncn1` [azoxystrobin], the solubility in water is 6 mg/L (≈ 14.9 µM).

For `Fc1ccc([C@]2(Cn3cncn3)O[C@H]2c2ccccc2Cl)cc1` (racemic) [epoxyconazole], the solubility in water is reported as 6.63*10^−4 g/100 ml.

Regarding `O=C(Nc1ccc([N+](=O)[O-])cc1Cl)c1cc(Cl)ccc1O` [niclosamide], the solubility in water was 100 mg/L (≈ 306 µM).

For the compound `CC1(C)C(C=C(Cl)Cl)C1C(=O)OCc1cccc(Oc2ccccc2)c1` (stereo not shown) [permethrin], the solubility in water was 0.006 mg/L (≈ 0.0153 µM).

Turning to `Cc1c(COC(=O)[C@@H]2[C@H](/C=C(\Cl)C(F)(F)F)C2(C)C)cccc1-c1ccccc1` (racemic) [bifenthrin], the solubility in water was less than 0.001 mg/L.

For the compound mancozeb, the solubility in water is on record as 6.2 ppm.

Take `CCCCCCCCCCCCCN1CC(C)OC(C)C1` (stereo not shown) [tridemorph]: the solubility in water was 1.1 mg/L (≈ 3.7 µM).

For `COc1cc(OC)nc(NC(=O)NS(=O)(=O)c2ncccc2C(=O)N(C)C)n1` [nicosulfuron], the solubility in water is 70 mg/L (≈ 171 µM).
